# In patent US5622725A, “Wound disinfection and repair” (Alcide Corporation, priority 1996, dated 1997):
# Key:
# Pseudomonas aeruginosa = assay: Cidal activity of 50 ppm ClO2; assay type: cell-based; settings: within one minute
# Description: (§1) This invention provides a quick-acting, broad-spectrum antimicrobial, that is not absorbed systemically because it is rapidly eliminated or degraded. The inventive compositions have the requisite, extended range of antimicrobial action, rapidity of kill and degradability for this application. […] ClO2 reacts with oxidizable bonds of these organisms and other organic matter and, as a result, is reduced to lower oxidation states: initially chlorite and ultimately chloride. The latter is present at high levels in the body (ca. 0.5% of cellular fluids), so that the small amount formed by ClO2 degradation (in the parts per million range) would disappear into that pool. Compatability of these disinfecting peritoneal flush solutions is also appropriate, since the ClO2 is generated or dissolved in solutions which have osmotic pressures that are suitably isotonic with cellular fluids.
# Staphylococcus species = assay: Cidal activity of 50 ppm ClO2; assay type: cell-based; settings: within one minute
# Description: as §1
# Streptococcus species = assay: Cidal activity of 50 ppm ClO2; assay type: cell-based; settings: within one minute
# Description: as §1
# [1] = tested on: Escherichia coli and other coliforms; assay: Cidal activity of 50 ppm ClO2; assay type: cell-based; settings: within one minute
# Description: as §1
# Bacteroides species = assay: Cidal activity of 50 ppm ClO2; assay type: cell-based; settings: within one minute
# Description: as §1
# Klebsiella pneumoniae = assay: Cidal activity of 50 ppm ClO2; assay type: cell-based; settings: within one minute
# Description: as §1
# cows' udders = assay: Infusion into cows' udders, immune response; assay type: in vivo, cow; settings: 350 ppm in buffered saline
# Description: It is an advantage of the invention that solutions containing fairly significant levels of ClO2 are particularly well tolerated by tissues. […] ClO2 is capable of being reduced to lower oxidation states, such as chlorite and chloride, upon contact with organic materials, but is less reactive than, for example, hypochlorite, and a volume of ClO2 -containing saline is expected to retain significant antimicrobial activity when used to flush out organic debris from an incised area. Appropriate use levels of ClO2 will vary, depending on the amount of organic detritus in the site, but generally concentrations of about 5 to 250 ppm in approximately isotonic solution can be used with good effect.
# mammalian tissue = assay: Tolerance by mammalian tissue (eye irrigant, udder infusion, uterine douche); assay type: in vivo, rabbits, cow, mares; settings: 50 ppm
# Description: The materials in the table which are as effective as the 50 ppm ClO2 solution are ones that would be considered to be too irritating and/or corrosive for use as an irrigant in a peritoneal cavity.
# [2] = tested on: Staphylococcus epidermidis biofilms; assay: Sterilization of S. epidermidis biofilms, minimal exposure time at 22° C. (supravital dye, confirmed by culture); assay type: cell-based; settings: 22° C.
# Description: This example compares and contrasts the cidal effectiveness of compositions of the invention with other disinfectants and antibiotics against Staphylococcus epidermidis biofilms, which are frequently observed on the surface of C.A.P.D. peritoneal catheters even in the absence of peritonitis or exit site infections.
# A strain of S. epidermidis with characteristic abundant slime production, and derived from a human source, is used to prepare the biofilms. The isolate is fully sensitive in the fluid phase to all commonly used antibiotics as assayed using routine test methods. Aliquots of the bacteria are frozen at -70° C. in 10% glycerol broth or propagated on 5% defibrinated horse blood agar. Standardized biofilms are formed on soda glass microscope slides or slides coated with Silastic® (the basic material of indwelling catheters; see Cecil's, cited above, on page 542), placed in Petri dishes containing 20 ml of tryptone soya broth (Oxoid Ltd., England), seeded with 10^4 cfu S. epidermidis and incubated for 18 hours at 37° C. Reproducible uniform and confluent S. epidermidis biofilms of minimal density are formed.
# Antibiotic activity against S. epidermidis biofilms are determined using a supravital dye which acts as an electron acceptor in coupled oxidative systems in biofilm bacteria. The method allows the bacteria to be examined undisturbed within the biofilm matrix in situ. Briefly stated, the biofilms are exposed to antibiotic solutions and incubated at […] for varying periods of time. Positive (viable, 1% peptone water) and negative (sterilized, 4% formol-peptone) controls are included in all experiments. After a designated exposure at 22° C. for varying periods of time between 15 seconds to 6 hours, the biofilms are rinsed twice in sterile water and allowed to drain. They are then placed in a flat agar medium incorporating substantive dyes and incubated at 37° C. for 4 hours, then 24 hours. Viability is assessed visually by a change in dye color and confirmed after 24 hours by mechanically scraping and subsequently culturing the biofilms. Sterilization is indicated by the absence of color changes and confirmed by culture of both intact and mechanically fragmented biofilms. Inhibition of growth is indicated by a lack of color change after a 4-hour incubation and confirmed by a positive color change by 24 hours.
# peritoneal cavity = settings: infused into the peritoneal cavity and other body cavities; per Ser. No. 08/133,465 and U.S. Pat. No. 5,252,343; cited from earlier work
# [3] = tested on: free radicals generated by xanthine oxidase (XO) on xanthine; assay: Scavenging of free radicals generated by xanthine oxidase on xanthine (ferricytochrome C reduction); assay type: biochemical
# Description: Since recent studies indicate that the superoxide radical is the active form of oxygen in the prolyl and lysyl hydrolyase reactions during collagen synthesis, this example assesses the effects that compositions of the invention have on free radicals.
# Free radicals are generated in vitro by the action of xanthine oxidase (XO) on xanthine. The generation of free radicals is monitored by the reduction of ferricytochrome C by the system. The action of chlorine dioxide is compared with the scavenging action of the well known free radical scavengers superoxide dismutase (SOD) and catalase.
# The experiments are divided into three groups. In the first group, 50 μmoles of xanthine, 0.0217 units/mg XO, 0.1 mM EDTA are mixed in a total volume of 1.0 ml Hank's Balanced Salt Solution (HBSS). This generated 64 ±8 nmoles oxygen. In the second group, 0.3125 units/mg SOD and 1,300 units catalase are added to the reagents employed in group 1; this yields 19.4 nmoles oxygen. […] In the third group, chlorine dioxide is substituted for the SOD and catalase in the same system; a chlorine dioxide concentration of about 7.5 ppm inhibits free radical formation by 74% and at a concentration of 15 ppm, by 100%.
# [4] = tested on: lactobacilli, streptococci, coliforms, Klebsiella species, Enterobacter species, Bacteroides species, clostridia and eubacteria; assay: Broad-spectrum antimicrobial activity; assay type: cell-based; settings: aerobic and anaerobic
# Description: In one embodiment, the present invention is directed to the use of effective amounts of chlorine dioxide as a peritoneal cavity irrigant. The enteric organisms which enter the peritoneal cavity through contamination by gastrointestinal contact, whether by physical trauma or during surgery, are all susceptible to the cidal effects of chlorine dioxide, which is a broad-spectrum antimicrobial. […] However, as mentioned in the Introduction, addition of antibiotics to the irrigating solution has not provided any additional benefit (Hau and Nishikawa, cited above), and it is presumed that the peritoneal irrigation derives from its mechanical effect. The ineffectivenss of local antibiotic solutions has been surprising to researchers, since the antibiotics that have been used were capable of in vitro inhibition of the bacterial species present in the peritoneal cavity. It may be that the lack of effect was attributable to the brevity of contact of the antibiotic with the organisms, since usual flush times approximate five minutes or less in duration, which would be too short for significant cidal action to occur.
smiles,measurement,setting,value
"[O][Cl+][O-] [ClO2, chlorine dioxide]",kill,Pseudomonas aeruginosa,6 logs/ml
same,kill,Staphylococcus species,6 logs/ml
same,kill,Streptococcus species,6 logs/ml
same,kill,[1],6 logs/ml
same,kill,Bacteroides species,6 logs/ml
same,kill,Klebsiella pneumoniae,6 logs/ml
same,safety of infusion / immune response,cows' udders,safely infusable into cows' udders without stimulation of any immune response
same,tolerance by mammalian tissue,mammalian tissue,well tolerated by mammalian tissue
same,Exposure Time (22° C.) for Film Sterilization,[2],5 s
same,inflammatory response on infusion,peritoneal cavity,without evoking the inflammatory response
same,inhibition of free radical formation,[3]; 15 ppm chlorine dioxide,100%
same,inhibition of free radical formation,[3]; about 7.5 ppm chlorine dioxide,74%
same,inhibition of free radical formation,[3]; in words,neutralize the superoxide and related radicals
same,demonstrated activity against organisms,[4],"demonstrated activity against all relevant organisms, both aerobic and anaerobic"
